Measured values from patent publication US20210393621A1, “COMBINATION SEROTONIN SPECIFIC REUPTAKE INHIBITOR AND SEROTONIN 1A RECEPTOR PARTIAL AGONIST FOR REDUCING L-DOPA-INDUCED DYSKINESIA” (The Research Foundation for The State University of new York, priority 2018, published 2021).
Where two headings read alike, the source gives them in different places.

Assays:
[1] = tested on: striatal c-Fos, PPD, PPE, PPT and 5-HT1AR mRNA; test: Experiment 2: real-time RT-PCR of striatal gene expression
[2] = tested on: 6-OHDA-lesioned hemi-parkinsonian rats; test: Experiment 2: forepaw adjusting steps (FAS); format: in vivo, Sprague-Dawley rats; settings: Vilazodone 10 mg/kg + L-DOPA 6 mg/kg; by Day 15
Protocol: […].). All VZD injections were administered 5 min prior to LD. […] AIMs values expressed are the median sum of axial, limb, and orolingual (ALO) behaviors. […] Values are expressed as medians [±median absolute difference (M.A.D.)]. […] Forepaw adjusting steps (FAS): The FAS test is a measure of forelimb akinesia performed according to previous protocols (Bishop et al., 2012; Chang et al., 1999). Data are presented as mean percent intact stepping where the sum of the total steps with the lesioned forepaw was divided by the total steps with the unlesioned forepaw multiplied by 100. Lower percent intact scores indicate greater forelimb akinesia. Prior to baseline, rats received 2 acclimation periods. On-treatment FAS was performed 60 min post-L-DOPA.

[3] = biological target: 5-HT2A (Homo sapiens, UniProt P28223); settings: cited from earlier work
[4] = tested on: striatal and raphe tissue monoamines; test: Experiment 1: HPLC of tissue monoamines and metabolites in striatum and dorsal raphe nucleus; settings: for 5-HIAA / 5-HT / 5-HT Turnover / DA Turnover / DOPAC / DA: 60 min post-LD
Protocol: Three-weeks post-lesion, animals were divided into 2 equally disabled groups, measured by forepaw adjusting steps (FAS, see below). One group (n=8) began receiving 14 days of daily vehicle (0.9% NaCl+0.1% ascorbic acid) and the other (n=22) received L-DOPA methyl ester (6 mg/kg, s.c.; Sigma)+DL-serine 2-(2,3,4-trihydroxybenzyl) hydrazine hydrochloride (benserazide; 15 mg/kg, s.c.; Sigma), hereafter L-DOPA, dissolved in vehicle at a volume of 1 mg/kg. Treatment persisted for 14 days to produce stable AIMs expression (Putterman et al., 2007; Conti et al., 2014). Thereafter, L-DOPA-treated animals with Axial, Limb, and Orolingual (ALO) AIMs (see description below, FIG. 1A)<30 were excluded from the study and the remaining L-DOPA-treated animals were divided into 3 equally dyskinetic groups. […] Daily injections continued over 23 days, with behavior assayed on Days 15, 22, 29, and 36. On Day 37, animals were killed 60 min post-treatment Left and right dorsal striata and DRN were dissected and flash frozen for HPLC analyses.
High-performance liquid chromatography (HPLC): HPLC, a method for semi-automated catecholamine analysis with coulometric detection, was performed according to prior protocols (Bishop et al., 2009) to determine the tissue levels of monoamines, their metabolites, and monoamine turnover in the striatum and DRN. The limit of detection for DOPAC, DA, 5-hydroxyindoleacetic acid (5-HIAA) and 5-HT was 10^−10 M. Final oxidation current values were plotted on a standard curve from 10^−6 M to 10^−9 M and expressed as pg of monoamine or metabolite per mg of tissue unless otherwise specified.
On the final treatment day, animals were sacrificed 60 min post-LD treatment and left and right striata and dorsal raphe nucleus (DRN) were collected for high performance liquid chromatography (HPLC) analysis. Values (means±standard mean error) are expressed as picograms of monoamine or metabolite per milligram wet tissue weight. Turnover estimates were determined by dividing a subjects metabolite value by its corresponding monoamine. Differences were assessed by a 2×4 (lesion×treatment) ANOVA, followed by Fisher's LSD post-hocs when appropriate. *p<0.01 vs lesion vs intact; +p<0.05 vs all; ^p<0.05 vs VZD (0)+LD (0); #p<0.05 vs VZD (0)+LD (6)

[5] = tested on: extracellular 5-HT, dopamine and norepinephrine; settings: cited from earlier work; for maximal increase of extracellular 5-HT: rats, acute systemic injection, measured 3 h after injection
[6] = biological target: T1, SERT (Rattus norvegicus, UniProt P31652); settings: rat cortex and hippocampus ex vivo, cited from earlier work
T1 construct: 50% occupancy at 1-3 mg/kg in rat cortex and hippocampus ex vivo; from tissue; host or cells: rat cortex and hippocampus

[7] = biological target: T2, 5-HT1A receptor (Homo sapiens, UniProt P08908); set-up: expressed in transfected cells; host or cells: SF9 cells; settings: 5-HT1A receptor expressed in SF9 cells; cited from earlier work
T2 sequence (P08908 1-422): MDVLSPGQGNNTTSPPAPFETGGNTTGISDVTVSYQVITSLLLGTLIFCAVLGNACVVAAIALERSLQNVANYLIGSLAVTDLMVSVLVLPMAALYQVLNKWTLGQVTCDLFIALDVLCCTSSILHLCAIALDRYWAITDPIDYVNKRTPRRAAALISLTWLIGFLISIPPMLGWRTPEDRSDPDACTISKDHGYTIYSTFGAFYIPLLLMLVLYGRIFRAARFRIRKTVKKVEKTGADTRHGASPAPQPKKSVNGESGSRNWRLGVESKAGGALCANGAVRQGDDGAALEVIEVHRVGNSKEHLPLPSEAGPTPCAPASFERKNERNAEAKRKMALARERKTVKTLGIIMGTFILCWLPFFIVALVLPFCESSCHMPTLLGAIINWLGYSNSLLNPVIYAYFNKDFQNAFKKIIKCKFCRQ

[8] = tested on: 6-OHDA-lesioned hemi-parkinsonian rats; test: Experiment 1: AIMs, established LID in L-DOPA-primed hemi-parkinsonian rats; format: in vivo, Sprague-Dawley rats
[9] = lesioned striata, VZD 0, 10 or 20 mg/kg + L-DOPA 6 mg/kg daily, day 23, 60 min post-injection
[10] = Dorsal Raphe Nucleus, VZD(10) + LD(6) mg/kg
[11] = Dorsal Raphe Nucleus, VZD(20) + LD(6) mg/kg
[12] = Striatum, Intact, VZD(10) + LD(6) mg/kg
[13] = Striatum, Intact, VZD(20) + LD(6) mg/kg
[14] = Striatum, Lesion, VZD(10) + LD(6) mg/kg
[15] = Striatum, Lesion, VZD(20) + LD(6) mg/kg

T1 sequence (P31652 whole entry): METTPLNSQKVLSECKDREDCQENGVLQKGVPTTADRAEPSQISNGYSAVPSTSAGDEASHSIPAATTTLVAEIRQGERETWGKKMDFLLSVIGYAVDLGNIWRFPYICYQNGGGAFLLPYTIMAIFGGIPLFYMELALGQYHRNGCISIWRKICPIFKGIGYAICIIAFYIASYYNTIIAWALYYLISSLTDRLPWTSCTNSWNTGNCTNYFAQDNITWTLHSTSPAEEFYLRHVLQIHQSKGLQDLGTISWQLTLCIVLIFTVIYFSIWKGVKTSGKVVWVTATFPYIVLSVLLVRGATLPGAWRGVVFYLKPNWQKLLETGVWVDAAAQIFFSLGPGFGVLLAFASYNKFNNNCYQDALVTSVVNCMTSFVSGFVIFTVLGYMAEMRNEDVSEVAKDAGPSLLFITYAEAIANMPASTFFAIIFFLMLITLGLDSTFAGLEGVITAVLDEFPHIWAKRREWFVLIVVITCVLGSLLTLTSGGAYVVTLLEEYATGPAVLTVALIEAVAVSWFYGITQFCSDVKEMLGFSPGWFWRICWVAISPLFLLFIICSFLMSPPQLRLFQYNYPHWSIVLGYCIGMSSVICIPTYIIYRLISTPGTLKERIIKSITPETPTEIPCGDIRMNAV
Sequence of 5-HT2A (P28223 whole entry, species assumed): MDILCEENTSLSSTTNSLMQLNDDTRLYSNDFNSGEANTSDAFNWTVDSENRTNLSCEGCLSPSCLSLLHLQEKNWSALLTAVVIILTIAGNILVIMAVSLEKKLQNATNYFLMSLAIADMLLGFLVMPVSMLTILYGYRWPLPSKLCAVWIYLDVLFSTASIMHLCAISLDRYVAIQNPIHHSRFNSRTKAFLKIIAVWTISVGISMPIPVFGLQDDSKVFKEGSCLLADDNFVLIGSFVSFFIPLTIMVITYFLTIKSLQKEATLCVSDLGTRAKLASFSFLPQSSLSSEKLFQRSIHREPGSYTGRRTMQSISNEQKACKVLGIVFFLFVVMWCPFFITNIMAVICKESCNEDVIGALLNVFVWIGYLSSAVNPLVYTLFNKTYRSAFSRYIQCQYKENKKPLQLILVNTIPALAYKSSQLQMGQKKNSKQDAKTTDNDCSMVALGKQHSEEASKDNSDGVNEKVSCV

Cl.N#Cc1ccc2[nH]cc(CCCCN3CCN(c4ccc5oc(C(N)=O)cc5c4)CC3)c2c1 [Vilazodone, 5-{4-[4-(5-cyano-3-indolyl)-butyl]-1-piperazinyl}-benzofuran-2-carboxamide hydrochloride]
striatal PPT mRNA ([1]; FIG. 6B): significantly reduced it | striatal 5-HT1AR mRNA ([1]; day 23): did not affect striatal 5-HT1AR mRNA | striatal PPE mRNA ([1]; lesioned striata, L-DOPA 6 mg/kg, Vilazodone 20 mg/kg): modestly, though significantly reduced | striatal PPD mRNA [1, 9]: dose-dependently attenuated | striatal c-Fos mRNA [1, 9]: diminished | FAS, pro-motor effects versus Vilazodone (0)+L-DOPA (6 mg/kg) [2]: significantly enhanced the pro-motor effects of L-DOPA | affinity for 5-HT2A [3]: negligible affinity | 5-HIAA [4, 10]: 2541 ± 187^ picograms per milligram wet ti | 5-HT [4, 10]: 7013 ± 462^^ picograms per milligram wet ti | 5-HT Turnover [4, 10]: 0.37 ± 0.02 | DA Turnover [4, 10]: 7.60 ± 0.78 | DOPAC [4, 10]: 1175 ± 234 picograms per milligram wet ti | 5-HIAA [4, 11]: 1985 ± 345^ picograms per milligram wet ti | 5-HT [4, 11]: 5946 ± 776^ picograms per milligram wet ti | 5-HT Turnover [4, 11]: 0.32 ± 0.03 | DA [4, 11]: 128 ± 15.2 picograms per milligram wet ti | DA Turnover [4, 11]: 7.19 ± 1.12 | DOPAC [4, 11]: 909 ± 186 picograms per milligram wet ti | 5-HIAA [4, 12]: 470 ± 35.5 picograms per milligram wet ti | 5-HT [4, 12]: 326 ± 24.3 picograms per milligram wet ti | 5-HT Turnover [4, 12]: 1.45 ± 0.04 | DA [4, 12]: 4827 ± 222 picograms per milligram wet ti | DA Turnover [4, 12]: 0.85 ± 0.05 | DOPAC [4, 12]: 4138 ± 332^ picograms per milligram wet ti | 5-HIAA [4, 13]: 422 ± 38.6 picograms per milligram wet ti | 5-HT [4, 13]: 305 ± 33.5 picograms per milligram wet ti | 5-HT Turnover [4, 13]: 1.41 ± 0.07 | DA [4, 13]: 4560 ± 337 picograms per milligram wet ti | DA Turnover [4, 13]: 0.84 ± 0.03 | DOPAC [4, 13]: 3839 ± 306 picograms per milligram wet ti | 5-HIAA [4, 14]: 842 ± 78.8 picograms per milligram wet ti | 5-HT [4, 14]: 261 ± 30.7 picograms per milligram wet ti | 5-HT Turnover [4, 14]: 3.38 ± 0.31 | DA [4, 14]: 128 ± 14.2 picograms per milligram wet ti | DA Turnover [4, 14]: 1.56 ± 0.18 | 5-HIAA [4, 15]: 596 ± 55.1+ picograms per milligram wet ti | 5-HT [4, 15]: 223 ± 23.8 picograms per milligram wet ti | 5-HT Turnover [4, 15]: 2.84 ± 0.33^ | DA [4, 15]: 128 ± 26.2 picograms per milligram wet ti | DA Turnover [4, 15]: 1.50 ± 0.15 | DOPAC [4, 15]: 190 ± 44.6 picograms per milligram wet ti | DRN 5-HT ([4]; Vilazodone 10 mg/kg + L-DOPA): significantly increased DRN 5-HT | striatal 5-HT Turnover ([4]; Vilazodone 20 mg/kg, compared to Vilazodone (0 mg/kg)+L-DOPA (0 mg/kg)): reduced 5-HT Turnover | striatal 5-HIAA (printed 5-HIM) ([4]; Vilazodone 20 mg/kg, compared to all other treatments): attenuated 5-HIM | DRN DA Turnover ([4]; Vilazodone 10 or 20 mg/kg + L-DOPA): attenuated | DA in the lesioned striatum ([4]; both doses (10, 20 mg/kg) + L-DOPA vs groups receiving Vilazodone vehicle): significantly increased DA | DRN 5-HT Turnover ([4]; both doses of Vilazodone + L-DOPA): attenuated 5-HT Turnover | maximal increase of extracellular 5-HT ([5]; frontal cortex): 527% | extracellular dopamine and norepinephrine ([5]; rat brain, vilazodone 1 and 10 mg/kg): caused no change | maximal increase of extracellular 5-HT ([5]; ventral hippocampus): 558% | SERT occupancy ([6]; 10 mg/kg): 100% | SERT occupancy ([6]; 1-3 mg/kg): 50% | increase of [35S]GTPγS binding compared to vehicle [7]: fourfold | anti-LID efficacy, high versus low dose ([8]; 20 mg/kg vs 10 mg/kg, initially, dissipated after the first week): greater anti-LID efficacy than the lower dose | ALO AIMs, established LID ([8]; VZD 10 or 20 mg/kg s.c. 5 min prior to L-DOPA 6 mg/kg, vs Vilazodone (0 mg/kg)+L-DOPA (6 mg/kg), from first day throughout treatment): dramatically reduced AIMs | side effects, like 5-HT syndrome ([8]; chronic Vilazodone + L-DOPA in rats, any time point): weren't observed at any time point | reduction of development and expression of LID compared with Amantadine ([8]; validated rodent model): more effective than Amantadine
